Experimental data from paper PMC5238433 (Scientific Reports, 2017).
“Also recorded” adds a separate entry of the source. No end group written: not given here.

How the values were obtained:
[1] = tested on: human α-adrenergic 2 A receptors; conditions: CHO-K1 cells expressing human α-adrenergic 2 A receptors (Gαi coupled), 0.15 to 333 nM, xCELLigence; ref not given ("Recent studies"); cited from earlier work
From the text: Recent studies used the xCELLigence system to monitor activation of endogenous GPCRs. […] Here, we also ...

APJ homodimer = assay: MALDI-TOF MS of immunoprecipitated APJ complex after treatment with HIV TAT-TMD interference peptides; assay type: binding, human; conditions: peptide 4 μM, 60 min, 37 °C
From the text: TMDs are important for the formation of head-to-head interfaces in class A GPCR dimers. To identify dimerization interfaces in the seven TMDs of APJ, the effects of cell-penetrating interference peptides (containing the sequence of the hydrophobic transmembrane helices) on APJ homodimerization were examined by MS.
Figure 5 The effects of interference peptides on apelin receptor (APJ) homodimerization as measured by matrix assisted laser desorption […] time-of-flight (MALDI-TOF) mass spectrometry.
The identity of the TMD peptide sequences was analyzed with liquid chromatography (LC)-MS.
MS was performed to identity APJ dimer interfaces in samples treated with TMD peptides. Cells were transfected with APJ and, 48 h later, treated with or without the indicated HIV TAT-TMD fused peptides (4 μM) for 60 min at 37 °C. Extracted proteins were immunoprecipitated using an anti-APJ antibody. Protein A/G PLUS-agarose beads were incubated with proteins for 2 h and washed four times with lysis buffer. The APJ complex was eluted from beads as described previously. Then, the endogenous APJ complex was analyzed with an AXIMA matrix-assisted laser desorption/ionization time-of-flight (MALDI-TOF) system (Shimazdu) in linear positive mode. The mass range was 4–10 kDa and the matrix was Sinapic Acid (SA), 10 mg/ml (50% acetonitrile (ACN), 50% H2O, 0.1% […] (TFA)). The results were calibrated with a Shimadzu MALDI calibration kit (Laser BioLabs).

[2] = tested on: human umbilical vein endothelial cells (HUVECs); assay: xCELLigence RTCA, apelin-13-induced cellular response (cell index) with or without interference peptide; assay type: cell-based; conditions: TMD1 4 μM with apelin-13 10 μM, 0.1 μM or 1 nM; average of quadruplicates
Experimental: All curves were plotted as the average of quadruplicate treatments, with error bars shown as SEM.
A background step (step 1) was performed before other experimental steps. The background step was performed with each well of the E-Plate 16 containing only culture media (100 μl/well) for 30 min at 37 °C, prior to the addition of 10000 HUVECs per well (100 μl/well). […] The schedule settings were as follows (RTCA Software 2.0): […]

[3] = tested on: APJ dimer (APJ-Rluc / APJ-EGFP); assay: BRET, effect of interference peptides on APJ homodimers; assay type: cell-based, human
From the text: Figure 7 The effect of interference peptides on apelin receptor (APJ) dimers. […] BRET[1] was detected as described above.

[4] = tested on: angiotensin-converting enzyme 2 (ACE2); conditions: cited from earlier work
From the text: The apelin receptor (APJ) is a member of the family A of G-protein-coupled receptors (GPCRs) and is involved in range of physiological and pathological functions including fluid homeostasis, anxiety, and depression, as well as cardiovascular and metabolic disorders. APJ was first identified as an orphan GPCR with closest identity to the angiotensin II (Ang II) receptor. In 1998, the peptide apelin was isolated from bovine stomach extracts as the endogenous ligand of APJ.

[5] = tested on: APJ homodimers (APJ-Rluc / APJ-EGFP); assay: BRET, effect of agonist/antagonist treatment on APJ homodimerization; assay type: cell-based, human; conditions: CHO cells co-expressing APJ-Rluc and APJ-EGFP (1:1); concentration not given; four independent experiments in triplicate
Experimental: We further assessed APJ interactions by co-immunoprecipitation (Co-IP), BRET[1], and Förster resonance energy transfer (FRET). […] BRET studies were performed to confirm APJ homodimerization.
Figure 2 Assessment of apelin receptor (APJ) dimerization using co-immunoprecipitation (Co-IP) and bioluminescence resonance energy transfer (BRET) assays. (A) Assessment of APJ homodimerization with Co-IP. Chinese hamster ovary (CHO) cells were either not transfected (mock) or transfected with HA-APJ, Myc-APJ, or both (co-transfection). HA-APJ and Myc-APJ were also mixed (mix). Immunoprecipitated samples were resolved by SDS-PAGE and immunoblotted with an anti-Myc antibody (upper panel). […] (B) Assessment of APJ homodimerization with BRET[1]. (C) BRET saturation curves. (D) Assessment of effects of agonist-treatment on dimerization by BRET[1]. For BRET, four independent experiments were performed with triplicate samples and the results were expressed as the mean ± SEM of four experiments ([…] versus control group; NS, not significant versus unstimulated cells).
To monitor constitutive APJ interactions, CHO cells were transfected with APJ-Rluc and APJ-EGFP plasmids at a ratio of 1:1, 1:2, 1:3, 1:4, 1:5, and 1:6 to express a constant amount of donor-labeled protein with increasing amounts of acceptor-labeled protein. At 24 h post-transfection, cells were trypsinized and plated on a 96 well microplate for 24 h in HEPES-buffered phenol red-free medium (Invitrogen, Life Technologies). Coelenterazine h (5 μM; Promega) was added for BRET measurements using a Tristar LB941 plate reader (Berthold) with an Rluc filter (400–475 nm) and a EGFP filter (500–550 nm). To monitor the induced interactions of APJ, BRET signals were measured as described above, with slight modifications. […] To measure the effects of interference peptides on APJ dimers, CHO cells were co-transfected with APJ-Rluc and APJ-EGFP (1:3) and incubated with interference peptides corresponding to TMD1, TMD2, TMD3, TMD4, TMD5, TMD6, and TMD7 at 37 °C (4 μM), and BRET[1] detected as described above.

[6] = tested on: APJ oligomers (APJ-Rluc, APJ-VN173, APJ-VC155); assay: BiFC-BRET, effect of agonist/antagonist treatment on APJ oligomerization; assay type: cell-based, human; conditions: CHO cells co-expressing APJ-Rluc, concentration not given, four independent experiments in triplicate
Experimental: Additionally, BiFC-BRET assays were performed to detect APJ oligomerization in living cells. Two non-fluorescent fragments (pCE-BiFC-VN173 and pCE-BiFC-VC155) of Venus fluorescent protein were separately fused to APJ (APJ-VN173 and APJ-VC155) (Fig. 4A). CHO cells were then co-transfected with APJ-Rluc, APJ-VN173, and APJ-VC155 and observed with TIRFM.
Figure 4 Assessment of apelin receptor (APJ) oligomerization with bioluminescence resonance energy transfer - bimolecular fluorescence complementation (BiFC-BRET). (A) Principle of BiFC-BRET. The assay examines the formation of functional Venus by the complementation of protein fragments fused to APJ. Association of APJ enables formation of a bimolecular fluorescent complex. If all three tagged APJ proteins interact, BRET can occur. (B) TIRFM detection of APJ dimers (yellow particles) after BiFC. (C) Assessment of APJ oligomerization with BiFC-BRET. (D) Assessment of agonist-induced oligomerization.

CHO-K1 cells = tested on: CHO-K1 cells; parameters: method as in not given ("Recent studies"); conditions: serum-deprived CHO-K1 cells, 5 pM to 5 μM, xCELLigence; ref not given ("Recent studies"); cited from earlier work

Q: For Brc1c(NC2=NCCN2)ccc2nccnc12 [UK14,304], which cell index response [1] is on record?
A: Its cell index response is “induces a dose-dependent increase in CI”.

Q: With “PAIYMLVFLLGTTGNGLVLWTVFYGRKKRRQRRR [TMD1, HIV TAT-fused interference peptide derived from human APJ transmembrane domain 1]” as the molecule, how does the “species detected by MALDI-TOF MS / effect of peptide on APJ homodimerization” value (APJ homodimer; cells transfected with APJ, anti-APJ immunoprecipitation, MALDI-TOF linear positive mode, mass range 4–10 kDa, sinapic acid) read?
A: The value was “TMD1 dimers, TMD1 tetramers, APJ, [APJ + TMD1], APJ dimers, and [APJ + TMD1] dimers were detected”.

Q: What about the “binding to APJ (peptides encoding TMDs, MS)” value (APJ homodimer; MALDI-TOF) of the same molecule?
A: Its value is “can bind to APJ”.

Q: And the “HUVEC cell index (CI), interference peptide with apelin-13” value [2]?
A: Its value is “led to a decreasing trend in the CI compared to that before treatment”.

Q: And the “effect on APJ dimer BRET signals” value ([3]; CHO cells, APJ-Rluc:APJ-EGFP 1:3, peptide 4 μM, 37 °C, four independent experiments in triplicate)?
A: The value was “significantly reduced APJ dimer BRET signals”.

Q: What about the “reduction of APJ dimer BRET signals” value ([3]; CHO cells, APJ-Rluc:APJ-EGFP 1:3, peptide 4 μM, 37 °C, four independent experiments in triplicate, P < 0.01, one range for TMD1, 2, 3 and 4) of the same molecule?
A: The value was 55–75%.

Q: And the “disruption of APJ (homo)dimerization (statement in words)” value ([3]; interference peptides 4 μM, in vitro, by BRET and MS)?
A: The value was “disrupted APJ dimerization; also recorded: can effectively disrupt the formation of APJ homodimers; also recorded: disrupted APJ homodimerization in vitro”.

Q: Which “hydrolysis by ACE2” value [4] does the source give for apelin here?
A: Its value is “high catalytic efficiency”.

Q: For “apelin-36: APJ agonist purchased from Phoenix Pharmaceuticals (LVQPRGSRNGPGPWQGGRRKFRRQRPRLSHKGPMPF; Apelin-36; UniProt Q9ULZ1 42-77, looked up)”, which “BRET signal versus unstimulated cells (APJ homodimer formation)” value [5] is on record?
A: The value was “not significantly different to those of unstimulated cells”.

Q: What about the “BRET ratio versus unstimulated cells (APJ oligomerization, BiFC-BRET)” value [6] of the same molecule?
A: Its value is “the same as that of unstimulated cells”.

Q: For “calcitonin: stimulating serum-deprived CHO-K1 cells with calcitonin (CGNLSTCMLGTYTQDFNKFHTFPQTAIGVGAP; ends and bridges not checked; cysteine pairing not given here; UniProt P01258 85-116, looked up)”, which cell index response (CHO-K1 cells) is on record?
A: The cell index response was “a transient agonist-induced increase in CI lasting up to a few hours”.
